Reference: US9386769B2 (HUNAN RESEARCH INSTITUTE OF CHEMICAL INDUSTRY CO., LTD., priority 2011, dated 2016)
Like-named read-outs stand apart in the source and are kept apart here.

Key:
[1] = test system: Botrytis cinerea; test: Fungicidal activity against Botrytis cinerea, mycelial growth inhibition on PDA plate; format: cell-based; details: for activities against Botrytis cinerea (growth inhibition rating) / inhibition at 25 µg/mL: 25 mg/L; for inhibition at 0.1562 µg/mL: 0.1562 mg/L; for inhibition at 0.3125 µg/mL: 0.3125 mg/L; for inhibition at 0.625 µg/mL: 0.625 mg/L; for inhibition at 1.255 µg/mL: 1.255 mg/L; for inhibition at 25 µg/mL: read-out: activities against Botrytis cinerea (growth inhibition rating)
Description: (§1) Bioassay method: Stock solution of every test compound was prepared in an appropriate solvent such as N,N-dimethylformamide (DMF), and then diluted to the required test concentrations with sterile water containing 0.1% Tween 80; Pipetted 3 mL of test solution to 27 mL of potato dextrose agar (PDA) medium at 45° C. and poured into a Petri dish to prepare a plate after shaking thoroughly; 6 mm of diameter of fungi cake from the edge of 7-day-old […] colony was inoculated on the central of the plate, wherein mycelium facing down, and cultured in the culture tank at 28° C. The diameter of fungi spread was calculated 4 days later using the control group tested with the diluent only. Test was run 4 times. Data were subjected to EXCEL statistical software analysis and the growth inhibition of the tested compound was calculated according to the corresponding control, the activity was rated on the basis of percentage of growth inhibition using the following rating system: A, inhibition (%)>90; B, 90≧inhibition (%)>70; C, 70≧inhibition (%)>50; D, inhibition (%)≦50.
Fungicidal activities against Botrytis cinerea of compounds represented by the general formula (I) were evaluated with the corresponding method in Example 18, and some of the test results are shown in Table 6 to Table 8.

[2] = test system: Sclerotinia sclerotiorum; test: Fungicidal activity against Sclerotinia sclerotiorum, mycelial growth inhibition on PDA plate; format: cell-based; details: for activities against Sclerotinia sclerotiorum (growth inhibition rating) / inhibition at 25 µg/mL: 25 mg/L; for inhibition at 0.1562 µg/mL: 0.1562 mg/L; for inhibition at 0.3125 µg/mL: 0.3125 mg/L; for inhibition at 0.625 µg/mL: 0.625 mg/L; for inhibition at 1.255 µg/mL: 1.255 mg/L; for inhibition at 25 µg/mL: read-out: activities against Sclerotinia sclerotiorum (growth inhibition rating)
Description: as §1

[3] = test system: Alternaria alternata; test: Fungicidal activity against Alternaria alternata, mycelial growth inhibition on PDA plate; format: cell-based
Description: as §1
Fungicidal activities against Alternaria alternata of compounds represented by the general formula (I) were evaluated with the corresponding method in Example 18, and some of the test results are shown in Table 9 to Table 10.

[4] = test system: Aphis fabae; test: Insecticidal activity against Aphis fabae, dipping of horsebean seedlings; format: in vivo; details: 24 h; for mortality at 500 µg/mL: read-out: activities against Aphis fabae (mortality rating)
Description: Bioassay method: Stock solution of every test compound was prepared in an appropriate solvent such as N,N-dimethylformamide, and a small amount of Tween 80 was added as emulsification agent, then diluted to the required test concentrations with distilled water, using the control group tested with distilled water only. More than 20 adults of Aphis fabae were transferred to newly unearthed horsebean seedlings and 24 hr later, horsebean seedlings with Aphis fabae were dipped in the test solution for 5 s, then allowed to dry with filter paper, transplanted to the absorbent sponge and covered with a glass tube, then kept in a room for normal cultivation. Each assay contained three replications, and results were averaged. Mortality was assessed 24 hr after the treatment. The activity was rated to A, B, C or D according to the rating system in Example 22.

[5] = Botrytis cinerea, Table 8, read-out: activities against Botrytis cinerea (growth inhibition)
[6] = Botrytis cinerea, 2.5 mg/L, Table 8, read-out: activities against Botrytis cinerea (growth inhibition)
[7] = Botrytis cinerea, 5 mg/L, Table 8, read-out: activities against Botrytis cinerea (growth inhibition)
[8] = Sclerotinia sclerotiorum, Table 5, read-out: activities against Sclerotinia sclerotiorum (growth inhibition)
[9] = Sclerotinia sclerotiorum, 2.5 mg/L, Table 5, read-out: activities against Sclerotinia sclerotiorum (growth inhibition)
[10] = Sclerotinia sclerotiorum, 5 mg/L, Table 5, read-out: activities against Sclerotinia sclerotiorum (growth inhibition)
[11] = Botrytis cinerea, 2.5 mg/L, Table 7, read-out: activities against Botrytis cinerea (growth inhibition)
[12] = Botrytis cinerea, 5 mg/L, Table 7, read-out: activities against Botrytis cinerea (growth inhibition)
[13] = Botrytis cinerea, 10 mg/L, Table 7, read-out: activities against Botrytis cinerea (growth inhibition)
[14] = read-out: activities against Aphis fabae (mortality)
[15] = Sclerotinia sclerotiorum, 2.5 mg/L, Table 4, read-out: activities against Sclerotinia sclerotiorum (growth inhibition)
[16] = Sclerotinia sclerotiorum, 5 mg/L, Table 4, read-out: activities against Sclerotinia sclerotiorum (growth inhibition)
[17] = Sclerotinia sclerotiorum, 10 mg/L, Table 4, read-out: activities against Sclerotinia sclerotiorum (growth inhibition)

## CCCN(Cc1cnc(Cl)s1)c1nc(OC)ccc1[N+](=O)[O-] [Compound 08]
[1]; 2.5 mg/L, Table 7
  activities against Botrytis cinerea (growth inhibition): 68%
[1]; 5 mg/L, Table 7
  activities against Botrytis cinerea (growth inhibition): 70%
[1]; 10 mg/L, Table 7
  activities against Botrytis cinerea (growth inhibition): 70%
[1]
  activities against Botrytis cinerea (growth inhibition rating): A (A, inhibition (%)>90)
[2]
  activities against Sclerotinia sclerotiorum (growth inhibition rating): A (A, inhibition (%)>90)
[3]; 2.5 mg/L
  activities against Alternaria alternata (growth inhibition): 45%
[3]; 5 mg/L
  activities against Alternaria alternata (growth inhibition): 48%
[3]; 10 mg/L
  activities against Alternaria alternata (growth inhibition): 60%
[3]; 25 mg/L
  activities against Alternaria alternata (growth inhibition rating): C (C, 70≧inhibition (%)>50)

## COC(=O)NC(=S)Nc1ccccc1NC(=S)NC(=O)OC [Thiophanate-Methyl, reference compound]
[1]; [5]
  inhibition at 0.1562 µg/mL: 18%
  inhibition at 0.3125 µg/mL: 75%
  inhibition at 0.625 µg/mL: 88%
  inhibition at 1.255 µg/mL: 93%
[1]; [6]
  inhibition at 2.5 µg/mL: 98%
[1]; [7]
  inhibition at 5 µg/mL: 100%
[2]; [8]
  inhibition at 0.1562 µg/mL: 33%
  inhibition at 0.3125 µg/mL: 47%
  inhibition at 0.625 µg/mL: 63%
  inhibition at 1.255 µg/mL: 72%
[2]; [9]
  inhibition at 2.5 µg/mL: 77%
[2]; [10]
  inhibition at 5 µg/mL: 85%

## COc1ccc([N+](=O)[O-])c(N(C)Cc2cnc(Cl)s2)n1 [Compound 17]
[3]; 25 mg/L
  activities against Alternaria alternata (growth inhibition rating): B (B, 90≧inhibition (%)>70)

## CCNc1ccc([N+](=O)[O-])c(N(CC)Cc2cnc(Cl)s2)n1 [Compound 24]
[1]
  activities against Botrytis cinerea (growth inhibition rating): B (B, 90≧inhibition (%)>70)

## CCN(Cc1sc(C)nc1C)c1nc(OC)ccc1[N+](=O)[O-] [Compound 44]
[1]
  activities against Botrytis cinerea (growth inhibition rating): A (A, inhibition (%)>90)
[2]; 2.5 mg/L, Table 4
  activities against Sclerotinia sclerotiorum (growth inhibition): 70%
[2]; 5 mg/L, Table 4
  activities against Sclerotinia sclerotiorum (growth inhibition): 75%
[2]; 10 mg/L, Table 4
  activities against Sclerotinia sclerotiorum (growth inhibition): 87%
[2]
  activities against Sclerotinia sclerotiorum (growth inhibition rating): A (A, inhibition (%)>90)
[3]; 25 mg/L
  activities against Alternaria alternata (growth inhibition rating): B (B, 90≧inhibition (%)>70)

## CCOc1ccc([N+](=O)[O-])c(N(CC)Cc2cnc(Cl)s2)n1 [Compound 04, 6-ethoxy-N-((2-chlorothiazole-5-yl)methyl)-N-ethyl-3-nitropyridine-2-amine]
[1]; [5]
  inhibition at 0.1562 µg/mL: 63%
  inhibition at 0.3125 µg/mL: 76%
  inhibition at 0.625 µg/mL: 81%
  inhibition at 1.255 µg/mL: 82%
[1]; [11]
  inhibition at 2.5 µg/mL: 70%
[1]; [6]
  inhibition at 2.5 µg/mL: 87%
[1]; [12]
  inhibition at 5 µg/mL: 78%
[1]; [7]
  inhibition at 5 µg/mL: 90%
[1]; [13]
  inhibition at 10 µg/mL: 94%
[1]; Botrytis cinerea
  inhibition at 25 µg/mL: > 90%
[4]
  mortality at 500 µg/mL: > 90%
[4]; [14]
  mortality at 6.25 µg/mL: 0%
  mortality at 25 µg/mL: 26.7%
  mortality at 100 µg/mL: 46.7%
[2]; [8]
  inhibition at 0.1562 µg/mL: 53%
  inhibition at 0.3125 µg/mL: 59%
  inhibition at 0.625 µg/mL: 61%
  inhibition at 1.255 µg/mL: 65%
[2]; [15]
  inhibition at 2.5 µg/mL: 75%
[2]; [9]
  inhibition at 2.5 µg/mL: 70%
[2]; [16]
  inhibition at 5 µg/mL: 90%
[2]; [10]
  inhibition at 5 µg/mL: 75%
[2]; [17]
  inhibition at 10 µg/mL: 100%
[2]; Sclerotinia sclerotiorum
  inhibition at 25 µg/mL: > 90%
[3]; Alternaria alternata, 2.5 mg/L, read-out: activities against Alternaria alternata (growth inhibition)
  inhibition at 2.5 µg/mL: 55%
[3]; Alternaria alternata, 5 mg/L, read-out: activities against Alternaria alternata (growth inhibition)
  inhibition at 5 µg/mL: 60%
[3]; Alternaria alternata, 10 mg/L, read-out: activities against Alternaria alternata (growth inhibition)
  inhibition at 10 µg/mL: 70%
[3]; Alternaria alternata, 25 mg/L, read-out: activities against Alternaria alternata (growth inhibition rating)
  inhibition at 25 µg/mL: 70 to 90%

## COc1nc(NCc2cnc(Cl)s2)ccc1[N+](=O)[O-] [Compound 47]
[1]
  activities against Botrytis cinerea (growth inhibition rating): C (C, 70≧inhibition (%)>50)

## CCN(Cc1cnc(Br)s1)c1nc(OC)ccc1[N+](=O)[O-] [Compound 33, 6-methoxy-N-((2-bromothiazole-5-yl)methyl)-N-ethyl-3-nitropyridine-2-amine]
[1]; Botrytis cinerea
  inhibition at 25 µg/mL: 70 to 90%
[2]; [15]
  inhibition at 2.5 µg/mL: 91%
[2]; [16]
  inhibition at 5 µg/mL: 100%
[2]; [17]
  inhibition at 10 µg/mL: 100%
[2]; Sclerotinia sclerotiorum
  inhibition at 25 µg/mL: > 90%

## CCCOc1ccc([N+](=O)[O-])c(N(CCC)Cc2cnc(Cl)s2)n1 [Compound 10]
[1]
  activities against Botrytis cinerea (growth inhibition rating): B (B, 90≧inhibition (%)>70)
[2]
  activities against Sclerotinia sclerotiorum (growth inhibition rating): B (B, 90≧inhibition (%)>70)

## CCN(Cc1cnc(Cl)s1)c1nc(N(C)C)ccc1[N+](=O)[O-] [Compound 28, 6-dimethylamino-N-((2-chlorothiazole-5-yl)methyl)-N-ethyl-3-nitropyridine-2-amine]
[1]; Botrytis cinerea, 1.25 mg/L, Table 7, read-out: activities against Botrytis cinerea (growth inhibition)
  inhibition at 1.25 µg/mL: 79%
[1]; [11]
  inhibition at 2.5 µg/mL: 86%
[1]; [12]
  inhibition at 5 µg/mL: 91%
[1]; [13]
  inhibition at 10 µg/mL: 96%
[1]; Botrytis cinerea
  inhibition at 25 µg/mL: > 90%
[2]; Sclerotinia sclerotiorum, 1.25 mg/L, Table 4, read-out: activities against Sclerotinia sclerotiorum (growth inhibition)
  inhibition at 1.25 µg/mL: 42%
[2]; [15]
  inhibition at 2.5 µg/mL: 64%
[2]; [16]
  inhibition at 5 µg/mL: 82%
[2]; [17]
  inhibition at 10 µg/mL: 90%
[2]; Sclerotinia sclerotiorum
  inhibition at 25 µg/mL: > 90%
other
  melting point: 74.6 to 78.4 °C

## CCOc1nc(N(CC)Cc2cnc(Cl)s2)ccc1[N+](=O)[O-] [Compound 45]
[4]
  mortality at 500 µg/mL: 70 to 90%

## CCCN(Cc1cnc(Cl)s1)c1nc(OCC)ccc1[N+](=O)[O-] [Compound 09]
[1]; 2.5 mg/L, Table 7
  activities against Botrytis cinerea (growth inhibition): 52%
[1]; 5 mg/L, Table 7
  activities against Botrytis cinerea (growth inhibition): 65%
[1]; 10 mg/L, Table 7
  activities against Botrytis cinerea (growth inhibition): 65%
[1]
  activities against Botrytis cinerea (growth inhibition rating): A (A, inhibition (%)>90)
[2]
  activities against Sclerotinia sclerotiorum (growth inhibition rating): A (A, inhibition (%)>90)

## CCOc1ccc([N+](=O)[O-])c(N(Cc2cnc(Cl)s2)C(C)C)n1 [Compound 31]
[1]
  activities against Botrytis cinerea (growth inhibition rating): B (B, 90≧inhibition (%)>70)

## CCN(Cc1cnc(Cl)s1)c1nc(Cl)ccc1[N+](=O)[O-]
other
  melting point: 71.4 to 74.1 °C

## CCN(Cc1cnc(Cl)s1)c1nc(Cl)ccc1Cl
other
  melting point: 95.8 to 96.8 °C

## CCCOc1ccc([N+](=O)[O-])c(N(CC)Cc2cnc(Cl)s2)n1 [Compound 07]
[1]; 2.5 mg/L, Table 7
  activities against Botrytis cinerea (growth inhibition): 44%
[1]; 5 mg/L, Table 7
  activities against Botrytis cinerea (growth inhibition): 52%
[1]; 10 mg/L, Table 7
  activities against Botrytis cinerea (growth inhibition): 68%
[1]
  activities against Botrytis cinerea (growth inhibition rating): B (B, 90≧inhibition (%)>70)
[2]
  activities against Sclerotinia sclerotiorum (growth inhibition rating): B (B, 90≧inhibition (%)>70)
[3]; 2.5 mg/L
  activities against Alternaria alternata (growth inhibition): 20%
[3]; 5 mg/L
  activities against Alternaria alternata (growth inhibition): 36%
[3]; 10 mg/L
  activities against Alternaria alternata (growth inhibition): 45%
[3]; 25 mg/L
  activities against Alternaria alternata (growth inhibition rating): C (C, 70≧inhibition (%)>50)
